This is an account of results in patent publication US20050197364A1, “Amide compounds as ion channel ligands and uses thereof” (priority 2003, published 2005).

In data set [1] the target is T1, VR1 receptor (Rattus norvegicus, UniProt O35433).
T1 construct: Dorsal root ganglion (DRG) neurons were recovered from either neonatal or adult rats; endogenous in cells; host or cells: primary rat dorsal root ganglion neurons
Briefly: Whole-cell patch clamp electrophysiology, capsaicin induced current in DRG neurons. It counts as cell-based. The procedure:
Dorsal root ganglion (DRG) neurons were recovered from either neonatal or adult rats and plated onto poly-D-lysine coated glass coverslips. The plated neurons were transferred into a chamber to allow drug solutions to be added to the cells using a computer-controlled solenoid-valve based perfusion system. The cells were imaged using standard DIC optics. Cells were patched using finely-pulled glass electrodes. Voltage-clamp electrophysiology experiments were carried out using an Axon Instruments Multiclamp amplified controlled by pCLAMP8 software.
The cells were placed into a whole-cell voltage clamp and help at a voltage of −80 mV while monitoring the membrane current in gap-free recording mode. 500 nM capsaicin was added for 30 seconds as a control. Test compounds at various concentrations at ranging from (10-1000 nM) were added to the cells for 1 minute prior to a 30 second capsaicin application. Differences between control experiments and drug positive capsaicin experiments were used to determine the efficacy of each test compound. All compounds that inhibited capsaicin induced current greater than 50% were considered positives.
(Patch clamp records ionic current or voltage across a cell membrane.)

In data set [2] the target is 2C9 (Homo sapiens, UniProt P11712). Briefly: Cytochrome p450 inhibition assessment, 2C9. It counts as in vitro ADME. The note with it: concentration range tested, upper 100 μM. The procedure:
(§1) The ability of test compounds to inhibit five major human cytochrome p450 isozymes was evaluated. Cytochrome p450 inhibition assays were performed on 96-well microtiter assay plates according to the protocols described in Gentest P450 inhibition instruction manuals. The assays were performed in duplicate at 8 concentrations with the upper concentration of 100 μM followed by a 1:3 serial dilution. Reactions were initiated by the addition of 100 μL of enzyme/substrate mix to 100 μL of cofactor/serial dilution mix, and terminated by addition of 75 μL of a 4:1 acentonitrile: 0.5 M Tris base solution or by 2N NaOH for CYP3A4/DBF. Fluorescence was measured using a fluorescence plate reader (FLUOstar model 403, BMG Lab Technologies, Durham, N.C.). For reactions with inhibition greater than 50%, IC50 values were determined by fitting the data to the Hill equation using software GraphPad Prism (Version 4.02, GraphPad Software, San Diego, Calif.).

In data set [3] the target is T2, CYP1A2 (Homo sapiens, UniProt P05177).
T2 sequence (P05177 1-516): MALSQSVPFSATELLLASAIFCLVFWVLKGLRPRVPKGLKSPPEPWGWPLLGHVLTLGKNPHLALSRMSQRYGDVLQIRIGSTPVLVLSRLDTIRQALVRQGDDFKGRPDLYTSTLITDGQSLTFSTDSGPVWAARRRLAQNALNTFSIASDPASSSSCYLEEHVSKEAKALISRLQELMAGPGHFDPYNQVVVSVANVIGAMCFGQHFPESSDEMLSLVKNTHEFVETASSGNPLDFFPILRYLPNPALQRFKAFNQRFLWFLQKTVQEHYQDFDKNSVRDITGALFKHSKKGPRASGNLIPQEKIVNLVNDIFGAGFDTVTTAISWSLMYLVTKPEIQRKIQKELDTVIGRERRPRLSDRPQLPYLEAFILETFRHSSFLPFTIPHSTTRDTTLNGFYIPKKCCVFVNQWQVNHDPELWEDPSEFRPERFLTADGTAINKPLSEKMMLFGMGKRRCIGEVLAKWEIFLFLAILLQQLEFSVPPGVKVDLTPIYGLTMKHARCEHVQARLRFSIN
Briefly: Cytochrome p450 inhibition assessment, CYP1A2. The note with it: estimated. It counts as in vitro ADME. The procedure:
as §1

The subject of data set [4] is thermal hyperalgesia. The data set can be described thus: Thermal hyperalgesia (carrageenan, latency of paw withdrawal). It counts as in vivo, rat. The note with it: rats, 30 mg/kg, two hours after dosing, FIG. 6. The procedure:
Sprague-Dawley male rats obtained from Charles River, San Diego, Calif. were purchased at 150-175 g, and held for at least one week before testing. Pain was induced by injecting 100 μl of 2% carrageenan in 0.9% saline sub-Q into the right ventral hindpaw while the animals were under isofluorane anesthesia. Animals were then dosed one hour after with different concentrations of Compound 18 (3, 10, and 30 mg/kg). Two hours later, after acclimatizing in testing chambers for 20-30 minutes, animals were tested on both hindpaws for latency of paw withdrawal using a thermal testing apparatus. 2-3 trials were conducted with 10 minutes between trials. […] The figure depicts the time in seconds until animals withdraw from thermal stimulation at baseline and two hours after administration of delivery vehicle, control compound, and three concentrations of Compound 18.
For orientation: The carrageenan paw model is a standard test of acute inflammation.

The subject of data set [5] is capsaicin induced plasma extravasation. The data set can be described thus: Plasma extravasation study (capsaicin applied to ear, Evans Blue). It counts as in vivo, rat. The note with it: rats, dose of 30 mg/kg, dosed two hours before Evans Blue; FIG. 2. The procedure:
The density of TRPV1 expression is enhanced during an inflammatory condition. Therefore TRPV1 antagonists have been investigated in three different models of inflammatory pain, namely plasma extravasation, paw lick assay, and thermal hyperalgesia.
Sprague-Dawley male rats obtained from Charles River, San Diego, Calif. were dosed with compound 18. Two hours later, they were injected with Evan's Blue (10 ml/kg or 150 μl). Thirty minutes after I.V. injection, 10 μl of 25 mM capsaicin in 100% ethanol was applied to the left ear of the animal, followed by 10 μl vehicle (100% EtOH) to the right ear of the […]. Fifteen minutes later, the animal was sacrificed using CO2. Each ear was removed, placed into labeled tubes and weighed. The dye was then extracted from the ears by drying the ears at 55-60° overnight. The following day, 250 μl formamide was added and left at 55-60° overnight.
An Evans blue standard curve was first generated ([…]). Samples (with ears) were spun for at least 1 minute before addition of 100 μl of each sample to appropriate wells. Samples were analyzed in a plate holder by SOFTmax PRO. Standards were graphed to generate a standard curve and then used to extrapolate Evans Blue concentrations of experimental samples.

T1 sequence (O35433 whole entry): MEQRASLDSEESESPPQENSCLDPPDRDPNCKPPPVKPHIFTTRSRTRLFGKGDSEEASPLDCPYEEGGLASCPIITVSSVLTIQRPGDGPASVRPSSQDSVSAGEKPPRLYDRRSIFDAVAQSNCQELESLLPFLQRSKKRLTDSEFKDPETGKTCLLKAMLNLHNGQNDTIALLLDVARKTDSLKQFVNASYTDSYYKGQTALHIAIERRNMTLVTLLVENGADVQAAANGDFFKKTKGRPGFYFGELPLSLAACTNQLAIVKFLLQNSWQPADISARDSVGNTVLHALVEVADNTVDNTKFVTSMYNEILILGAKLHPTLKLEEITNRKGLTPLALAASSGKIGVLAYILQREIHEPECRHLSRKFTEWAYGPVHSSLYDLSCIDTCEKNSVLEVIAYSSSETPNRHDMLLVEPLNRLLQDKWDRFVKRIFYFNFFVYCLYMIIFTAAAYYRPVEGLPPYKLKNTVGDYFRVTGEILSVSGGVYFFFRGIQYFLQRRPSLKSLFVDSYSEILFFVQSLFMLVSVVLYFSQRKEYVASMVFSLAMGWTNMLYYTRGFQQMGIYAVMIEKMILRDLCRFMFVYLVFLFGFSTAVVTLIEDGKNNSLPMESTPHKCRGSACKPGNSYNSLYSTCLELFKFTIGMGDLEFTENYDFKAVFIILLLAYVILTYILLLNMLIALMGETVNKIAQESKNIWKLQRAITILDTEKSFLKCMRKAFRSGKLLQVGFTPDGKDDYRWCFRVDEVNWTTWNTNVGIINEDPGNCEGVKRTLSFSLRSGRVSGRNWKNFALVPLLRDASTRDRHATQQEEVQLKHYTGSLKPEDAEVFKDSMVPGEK
Sequence of 2C9 (P11712 whole entry): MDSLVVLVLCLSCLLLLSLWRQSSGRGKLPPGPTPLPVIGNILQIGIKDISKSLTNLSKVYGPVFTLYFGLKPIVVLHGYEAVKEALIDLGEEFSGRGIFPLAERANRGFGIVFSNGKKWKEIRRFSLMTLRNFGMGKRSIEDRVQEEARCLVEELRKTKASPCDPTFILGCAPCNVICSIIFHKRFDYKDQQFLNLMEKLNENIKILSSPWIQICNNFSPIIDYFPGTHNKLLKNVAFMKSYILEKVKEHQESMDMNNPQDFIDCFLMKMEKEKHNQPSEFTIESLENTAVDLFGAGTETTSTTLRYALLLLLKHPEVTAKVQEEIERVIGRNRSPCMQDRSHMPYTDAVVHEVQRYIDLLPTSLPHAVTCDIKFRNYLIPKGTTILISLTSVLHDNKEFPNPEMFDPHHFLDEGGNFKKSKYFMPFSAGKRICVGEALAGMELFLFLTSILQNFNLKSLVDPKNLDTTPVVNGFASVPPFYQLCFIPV

As to `O=C(Nc1ccc(C(F)(F)F)cc1)c1ccc(-c2ncccc2Cl)cc1` [Compound 18, 4-(3-Chloropyridin-2-yl)-N-(4-trifluoromethyl-phenyl)benzamide], the “dose response of inhibiting a capsaicin induced calcium ion influx (FIG. 3)” value in data set [1] (50 nM, 100 nM and 250 nM) was “increasing effectiveness”. Further, the inhibition (usually the relative decrease from the control value, in per cent) at 0.1 µM in data set [1] (DRG neuron, 100 nM compound, treatment time 20 seconds, 500 nM capsaicin, rat DRG neurons, -80 mV) was < 75%. In data set [2], the “inhibition of 2C9 activity” value was “did not significantly inhibit”. Further, in data set [3], the IC50 – broadly, the midpoint of a concentration-inhibition curve – was 97.5 µM. Moreover, the “latency of paw withdrawal (reversal of thermal hyperalgesia)” value in data set [4] was “significantly increased”. Moreover, in data set [5], the “capsaicin induced plasma extravasation” value is listed as “significantly blocks”.
